# According to patent EP2488179B1, “NRF2 INHIBITORS AND USE THEREOF” (priority 2009, dated 2011):
# Legend:
# Type in all cases: cell-based
# [1] = tested on: SKOV3 ovarian cancer cells; test: FACS of propidium iodide stained cells after radiation; settings: 1 µM with 5 Gy radiation, 48 hours; compared to 5Gy radiation therapy
# Description: (§1) In order to measure whether a treatment of MB231 breast cancer cells and SKOV3 ovarian cancer cells with a combination of 3-[(4-biphenylyloxy)methyl]piperidine chloride, the selected Nrf2 inhibitor, and radiation therapy increase or synergistically increase the killing of cancer cells by apoptosis, the cancer cells were treated with 1 µM 3-[(4-biphenylyloxy)methyl]piperidine hydrochloride, exposed to 5 Gy radiation, and cultured under 5% CO2 conditions at 37°C for 48 hours. The cultured cells were collected and stained with propidium iodide, and cell cycles were analyzed using a fluorescence activated cell sorting (FACS).
# [2] = tested on: MB231 breast cancer cells; test: as above; settings: 1 µM with 5 Gy radiation, 48 hours; compared to 5Gy radiation therapy
# Description: as §1
# [3] = tested on: HO-1 mRNA; test: Semi-quantitative RT-PCR of HO-1 mRNA; settings: inhibitor, then tBHQ after 2 hours; GAPDH control; FIG. 3a
# Description: After 2 hours from the treatment of 3-[(4-biphenylyloxy)methyl]piperidine chloride, the selected Nrf2 inhibitor, RNA expression was assayed in order to measure the increase in the amount of heme oxygenase (HO)-1 mRNA by tBHQ treatment. mRNA was isolated from the cells treated with 3-[(4-biphenylyloxy)methyl]piperidine hydrochloride, using an RNA extraction kit (Qiagen, USA) and identified using a spectrometer (Amersham Biosciences, USA). cDNA was obtained from the mRNA using a reverse transcriptase (Promega, USA), and PCR was conducted using the cDNA as a template and primers having sequences SEQ ID NOS: 11 and 12 to measure the expression level of HO-1 mRNA. The PCR was performed with 25 cycles, each of which consisting of a denaturation at 94°C for 30 seconds, an annealing at 55°C for 30 seconds, and an extension at 72°C for 1 minute. The DNA obtained using the PCR was electrophoresed in a 1.5% agarose gel, stained using ethidium bromide, and observed under UV rays. […] It is believed that the 3-[(4-biphenylyloxy)methyl]piperidine hydrochloride that is selected as the Nrf2 inhibitor using the ARE-pGL3 luciferase plasmid in Example 1 acted on the ARE site to inhibit the activity of the Nrf2 transcription factor.
# [4] = tested on: H1299 lung cancer cells; test: Clonogenic assay with radiation (methylene blue staining); settings: 1, 5, and 10 µM with 2, 4, and 6 Gy radiation, 7 days
# Description: (§2) H1299 lung cancer cells, U87-MG brain cancer cells, or HT29 colorectal cancer cells were respectively inoculated into a 6 cm plate including a RPMI 1640 supplemented with 10% FBS, 100 µg/ml of streptomycin, and 100 unit/ml of penicillin. The plate was treated with the selected 1, 5, and 10 µM 3-[(4-biphenylyloxy)methyl]piperidine hydrochloride, the Nrf2 inhibitor, exposed to 2, 4, and 6 Gy -radiation, and cultured under 5% CO2 conditions at 37°C for 7 days. The cultured cells were washed with a phosphate buffered saline (PBS) and stained with a 1% methylene blue in 100% methanol. Then, the number of alive cells that formed colonies was calculated three times.
# [5] = tested on: HT29 colorectal cancer cells; test: as above; settings: 1, 5, and 10 µM with 2, 4, and 6 Gy radiation, 7 days
# Description: as §2
# [6] = tested on: U87-MG brain cancer cells; test: as above; settings: 1, 5, and 10 µM with 2, 4, and 6 Gy radiation, 7 days
# Description: as §2
# [7] = tested on: Nrf2 protein; test: Western blotting of Nrf2 protein; settings: FIG. 3b
# Description: (§3) In order to identify whether the 3-[(4-biphenylyloxy)methyl]piperidine hydrochloride, the selected Nrf2 inhibitor, acted on the ARE site to inhibit the binding of the Nrf2 transcription factor, and thereby inhibiting the expression of antioxidant enzymes, protein expression was analyzed. The increase in the amount of HO-1 protein by the tBHQ treatment was assayed after treating cells with the 3-[(4-biphenylyloxy)methyl]piperidine hydrochloride followed by treatment with tBHQ with a 2-hour gap between the treatments. Cytoplasmic fractions were obtained from the cells treated as described above using a method commonly used in the art. The fractions were separated using a 10% gradient SDS-PAGE, and then transferred to a nitrocellulose membrane (BioRad, Hercules, CA, USA). The membrane was blocked with a 5% skim milk and screened with an anti-Nrf2 antibody (Abcam, USA) and a HO-1 antibody (Oncogene Research Products, USA). The result was visualized by a reaction with a horseradish peroxidase-conjugated anti-rat IgG antibody (Santa Cruz Biotechnology, Inc.) using a thermostat and then with an ECL system (GE, USA).
# [8] = tested on: Nrf2; test: ARE-pGL3 luciferase reporter assay for screening Nrf2 inhibitors in transformed HEK293 cells
# Description: Oligomers including an ARE site (SEQ ID NOS: 1 to 10, Bioneer Corp., Ltd., Korea) were synthesized and treated with Kpnl and M1 ul restriction enzymes. The oligomers were inserted into a pGL3 luciferase plasmid (Promega, USA) treated with the Kpnl and M1ul restriction enzymes using a ligase (Promega, USA) to prepare ARE-pGL3 luciferase. […] Besides the plasmid, pcDNA3.1 (Invitrogen, USA) plasmid including a Neo gene was used together as a selection plasmid to select a transformed cell using G418 (neomycin) as a selectable factor.
# HEK293 cells were purchased from the American Type Culture Collection (ATCC) and cultured in a Dulbecco's modified Eagle's medium (DMEM) supplemented with 10% fetal bovine serum (FBS), 100 µg/ml of streptomycin, and 100 units/ml of penicillin under 5% CO2 conditions at 37°C. A transformation by which the ARE-pGL3 luciferase was introduced into the HEK293cell was performed using Lipofectamine 2000™ (Invitrogen, Calsbad, CA, USA). Activity of luciferase was measured using a Luciferase Assay Kit (Promega, Medison, WI, USA). […] Based on the result, ARE-pGL3 luciferase plasmid including 4(1/2)xARE-2 having a sequence of SEQ ID NO: 10 was used as a plasmid for screening an Nrf2 inhibitor.
# After the transformation performed according to Example 1-(2), transformed HEK293 cells that expressed both ARE-pGL3 luciferase and pcDNA3.1 were selected using a culture medium including G418 (600µg/ml) and used as a cell line for screening the Nrf2 inhibitor. 20,000 cells were inoculated into each well of a 96-well plate and cultured for 24 hours under the conditions described above in Example 1-(2). […] Transformed cells that stably expressed the ARE-pGL3 luciferase plasmid were selected, and 8,000 candidate substances, low molecular weight single compounds were used to screen the Nrf2 inhibitor. Each candidate substance was added to each well to a final concentration of 10 µM. The wells were incubated for 18 hours, and the luciferase activity was measured using a Victor 3 Luminometer (Perkin Elmer, USA).
# [9] = tested on: H1299 lung cancer cells; test: CCK-8 viability assay, alone and combined with Doxorubicin; settings: 48 hours
# Description: (§4) H1299 lung cancer cells, SKOV3 ovarian cancer cells, U87-MG brain cancer cells, and HT29 colorectal cancer cells were respectively inoculated into a 96-well plate including a Rosewell Park Memorial Institute medium 1640 (RPMI 1640) supplemented with 10% FBS, 100 µg/ml of streptomycin, and 100 unit/ml of penicillin. Each well was treated with 0.2, 2, 5, and 10 µM 3-[(4-biphenylyloxy)methyl]piperidine hydrochloride, and then treated with 0.15 µM Doxorubicin, an anti-cancer agent after 2 hours therefrom. The wells were cultured under 5% CO2 conditions at 37°C for 48 hours, and the killing effect of the cancer cells was assayed using a CCK-8 viability assay kit (Dojindo, Japan).
# [10] = tested on: SKOV3 ovarian cancer cells; test: as above; settings: 48 hours
# Description: as §4
# [11] = tested on: HT29 colorectal cancer cells; test: as above; settings: 48 hours
# Description: as §4
# [12] = tested on: U87-MG brain cancer cells; test: as above; settings: 48 hours
# Description: as §4
# [13] = tested on: HO-1 protein; test: Western blotting of HO-1 protein; settings: FIG. 3b
# Description: as §3
# [14] = tested on: HEK293 cells; test: CCK-8 viability assay (absorbance at 450 nm) on the screening cells; settings: CCK-8, absorbance at 450 nm, FIG. 2b
# Description: In addition, in order to confirm that the inhibition of the luciferase activity is not caused by the death of a cell but by the Nrf2 inhibitor, absorbance was measured using a CCK-8 viability assay kit (Dojindo, Japan) and a spectrometer (Lab Systems, USA) at 450 nm.
# [15] = inhibitor then tBHQ with a 2-hour gap, cytoplasmic fractions, concentration-dependent
# [16] = 0.2, 2, 5, and 10 µM, then 0.15 µM Doxorubicin after 2 hours, compared to Doxorubicin alone
# [17] = compound alone, 0.2, 2, 5, and 10 µM
smiles,measurement,setting,value
Cl.c1ccc(-c2ccc(OCC3CCCNC3)cc2)cc1 (stereo not shown) [3-[(4-biphenylyloxy)methyl]piperidine hydrochloride],killing effect of the combination with radiation,[1],twice
same,killing effect of the combination with radiation,[2],4.3 times
same,expression of HO-1 mRNA,[3],inhibited in a dose-dependent manner
same,sensitivity of cells to radiation,[4],increased or synergistically increased the sensitivity of cells to radiation
same,sensitivity of cells to radiation,[5],increased or synergistically increased the sensitivity of cells to radiation
same,sensitivity of cells to radiation,[6],increased or synergistically increased the sensitivity of cells to radiation
same,amount of Nrf2 protein,[7]; [15],reduced
same,activity of the luciferase,"[8]; concentration dependence, FIG. 2a",inhibited the activity of the luciferase in a concentration-dependent manner
same,activity of the luciferase,"[8]; screening, final concentration of 10 µM, incubated for 18 hours",inhibits the activity of the luciferase
same,killing effect of a combination with Doxorubicin,[9]; [16],significantly increased in a concentration-dependent manner
same,effect on the viability,[9]; [17],negligible
same,killing effect of a combination with Doxorubicin,[10]; [16],significantly increased in a concentration-dependent manner
same,effect on the viability,[10]; [17],negligible
same,killing effect of a combination with Doxorubicin,[11]; [16],significantly increased in a concentration-dependent manner
same,effect on the viability,[11]; [17],negligible
same,killing effect of a combination with Doxorubicin,[12]; [16],significantly increased in a concentration-dependent manner
same,effect on the viability,[12]; [17],negligible
same,amount of HO-1 protein,[13]; [15],reduced
same,cell toxicity,[14],does not have cell toxicity
"CC(C)(C)c1cc(O)ccc1O [tBHQ, tertiary butylhydroquinone, reference compound]",amount of Nrf2 protein,[7]; treatment with tBHQ,increased
same,activity of the luciferase,"[8]; tBHQ added to the culture, activates the ARE",increased twice
same,amount of HO-1 protein,[13]; treatment with tBHQ,increased
